Legend:
Experiment in all cases: Test G Post-Emergence Protocol
Assay type in all cases: in vivo
[1] = tested on: ivy-leaved morning glory (Ipomoea hederacea); settings: Ipomoea, post-emergence, 312 h; for pest or weed control at 15.625 g/ha: 15.625 g ai/ha, evaluated after 13 days (100=total damage to plant; 0=no damage to plant), read-out: Morningglory, Ivy-leaved damage rating; for pest or weed control at 62.5 g/ha: 62.5 g ai/ha, read-out: Morningglory, Ivy-leaved damage rating (100=total damage to plant; 0=no damage to plant); for pest or weed control at 62.5 g/ha / pest or weed control at 250 g/ha: evaluated after 13 days; for pest or weed control at 250 g/ha: 250 g ai/ha, read-out: damage to plant, Morningglory, Ivy-leaved (100=total damage to plant; 0=no damage to plant)
Method in brief: (§1)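 Seedlings grown 8 days in soil in a glasshouse (24/16 °C day/night, 14 h light, 65% humidity) were sprayed post-emergence with compound in acetone/water 50:50 plus 0.5% Tween 20 at 15.625, 62.5 or 250 g/ha. Damage was scored after 13 days on a 0–100 scale (100 = total damage).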

[2] = tested on: giant foxtail (Setaria faberi); settings: Setaria faberi, post-emergence, 312 h; for pest or weed control at 15.625 g/ha: 15.625 g ai/ha, evaluated after 13 days (100=total damage to plant; 0=no damage to plant), read-out: Foxtail, Giant damage rating; for pest or weed control at 62.5 g/ha: 62.5 g ai/ha, read-out: Foxtail, Giant damage rating (100=total damage to plant; 0=no damage to plant); for pest or weed control at 62.5 g/ha / pest or weed control at 250 g/ha: evaluated after 13 days; for pest or weed control at 250 g/ha: 250 g ai/ha, read-out: damage to plant, Foxtail, Giant (100=total damage to plant; 0=no damage to plant)
Method in brief: as §1

corn (Zea mays) = settings: Zea mays, post-emergence, 312 h; for plant injury at 15.625 g/ha: 15.625 g ai/ha, evaluated after 13 days (100=total damage to plant; 0=no damage to plant), read-out: Corn damage rating; for plant injury at 62.5 g/ha: 62.5 g ai/ha, read-out: Corn damage rating (100=total damage to plant; 0=no damage to plant); for plant injury at 62.5 g/ha / plant injury at 250 g/ha: evaluated after 13 days; for plant injury at 250 g/ha: 250 g ai/ha, read-out: damage to plant, Corn (100=total damage to plant; 0=no damage to plant)
Method in brief: as §1

[3] = tested on: redroot pigweed (Amaranthus retroflexus); settings: Amaranthus retroflexus, post-emergence, 312 h; for pest or weed control at 15.625 g/ha: 15.625 g ai/ha, evaluated after 13 days (100=total damage to plant; 0=no damage to plant), read-out: Pigweed, Redroot damage rating; for pest or weed control at 62.5 g/ha: 62.5 g ai/ha, read-out: Pigweed, Redroot damage rating (100=total damage to plant; 0=no damage to plant); for pest or weed control at 62.5 g/ha / pest or weed control at 250 g/ha: evaluated after 13 days; for pest or weed control at 250 g/ha: 250 g ai/ha, read-out: damage to plant, Pigweed, Redroot (100=total damage to plant; 0=no damage to plant)
Method in brief: as §1

[4] = tested on: barnyardgrass (Echinochloa crus-galli); settings: Echinochloa crus-galli, post-emergence, 312 h; for pest or weed control at 15.625 g/ha: 15.625 g ai/ha, evaluated after 13 days (100=total damage to plant; 0=no damage to plant), read-out: Barnyardgrass damage rating; for pest or weed control at 62.5 g/ha: 62.5 g ai/ha, read-out: Barnyardgrass damage rating (100=total damage to plant; 0=no damage to plant); for pest or weed control at 62.5 g/ha / pest or weed control at 250 g/ha: evaluated after 13 days; for pest or weed control at 250 g/ha: 250 g ai/ha, read-out: damage to plant, Barnyardgrass (100=total damage to plant; 0=no damage to plant)
Method in brief: as §1

[5] = tested on: velvetleaf (Abutilon theophrasti); settings: Abutilon theophrasti, post-emergence, 312 h; for pest or weed control at 15.625 g/ha: 15.625 g ai/ha, evaluated after 13 days (100=total damage to plant; 0=no damage to plant), read-out: Velvetleaf damage rating; for pest or weed control at 62.5 g/ha: 62.5 g ai/ha, read-out: Velvetleaf damage rating (100=total damage to plant; 0=no damage to plant); for pest or weed control at 62.5 g/ha / pest or weed control at 250 g/ha: evaluated after 13 days; for pest or weed control at 250 g/ha: 250 g ai/ha, read-out: damage to plant, Velvetleaf (100=total damage to plant; 0=no damage to plant)
Method in brief: as §1

Row | Compound | pest or weed control at 15.625 g/ha [1] [%] | pest or weed control at 62.5 g/ha [1] [%] | pest or weed control at 250 g/ha [1] [%] | pest or weed control at 15.625 g/ha [2] [%] | pest or weed control at 62.5 g/ha [2] [%] | pest or weed control at 250 g/ha [2] [%] | plant injury at 15.625 g/ha (corn (Zea mays)) [%] | plant injury at 62.5 g/ha (corn (Zea mays)) [%] | plant injury at 250 g/ha (corn (Zea mays)) [%] | pest or weed control at 15.625 g/ha [3] [%] | pest or weed control at 62.5 g/ha [3] [%] | pest or weed control at 250 g/ha [3] [%] | pest or weed control at 15.625 g/ha [4] [%] | pest or weed control at 62.5 g/ha [4] [%] | pest or weed control at 250 g/ha [4] [%] | pest or weed control at 15.625 g/ha [5] [%] | pest or weed control at 62.5 g/ha [5] [%] | pest or weed control at 250 g/ha [5] [%]
1 | CN1C[C@H](c2ccc3occc3c2)[C@@H](C(=O)Nc2cccc(F)c2F)C1=O (racemic) [Compound 1500] | 0 | 0 | 10 | 40 | 60 | 60 | 10 | 10 | 60 | 0 | 0 | 0 | 10 | 60 | 60 | 0 | 0 | 20
2 | CN1C[C@@H](c2ccc(C(F)(F)F)cc2)[C@H](C(=O)Nc2cc[nH]n2)C1=O (racemic) [Compound 1533] | 0 | 0 | 0 | 0 | 0 | 0 | 0 | 0 | 0 | 0 | 0 | 0 | 0 | 0 | 0 | 0 | 0 | 0
3 | Cc1ccncc1NC(=O)[C@@H]1C(=O)N(C)C[C@H]1c1ccc(C(F)(F)F)cc1 (racemic) [Compound 1505] | 0 | 0 | 10 | 0 | 0 | 30 | 0 | 10 | 10 | 0 | 0 | 0 | 0 | 0 | 20 | 0 | 0 | 0
4 | CN1C[C@@H](c2ccc(C(F)(F)F)cc2)[C@H](C(=O)Nc2ccno2)C1=O (racemic) [Compound 1513] | 0 | 0 | 0 | 0 | 0 | 0 | 0 | 0 | 0 | 0 | 0 | 0 | 0 | 0 | 0 | 0 | 0 | 0
5 | Cc1cc(NC(=O)[C@@H]2C(=O)N(C)C[C@H]2c2ccc(C(F)(F)F)cc2)n[nH]1 (racemic) [Compound 1532] | 0 | 0 | 0 | 0 | 0 | 0 | 0 | 0 | 0 | 0 | 0 | 0 | 0 | 0 | 0 | 0 | 0 | 0
6 | Cc1cscc1NC(=O)[C@@H]1C(=O)N(C)C[C@H]1c1ccc(C(F)(F)F)cc1 (racemic) [Compound 1526] | 0 | 10 | 20 | 0 | 20 | 60 | 0 | 10 | 10 | 0 | 0 | 0 | 0 | 0 | 60 | 0 | 0 | 10
7 | CN1C[C@@H](c2ccc(C(F)(F)F)cc2)[C@H](C(=O)Nc2nc[nH]n2)C1=O (racemic) [Compound 1534] | 0 | 0 | 10 | 0 | 0 | 0 | 0 | 0 | 0 | 0 | 0 | 0 | 0 | 0 | 0 | 0 | 0 | 10
8 | CN1C[C@H](c2ccc3c(c2)CCO3)[C@@H](C(=O)Nc2cccc(F)c2F)C1=O (racemic) [Compound 1499] | 20 | 0 | 40 | 60 | 60 | 70 | 10 | 0 | 80 | 0 | 0 | 0 | 50 | 60 | 60 | 0 | 0 | 20
9 | CN1C[C@@H](c2ccc(C(F)(F)F)cc2)[C@H](C(=O)Nc2ccccc2)C1=O (racemic) [Compound 1404] | 0 | 10 | 30 | 0 | 50 | 70 | 20 | 20 | 40 | 20 | 40 | 30 | 10 | 20 | 40 | 10 | 20 | 20
